{"source": "paper PMC7522491", "about": "(Molecular Metabolism, 2020)", "origin": "cited, not measured here", "key": {"[1]": {"details": "administration in mice"}, "[2]": {"details": "infusion into the portal circulation, dogs"}}, "note": "Where no end group is shown, it is not given here."}
{"compound": "glucagon-like peptide-1 (HAEGTFTSDVSSYLEGQAAKEFIAWLVKGR; ends and bridges not checked; UniProt P55095 98-127, looked up) [GLP-1, incretin hormone administered in mice (literature)]", "values": [{"measurement": "blood insulin levels / insulin clearance", "setting": "[1]", "value": "increased blood insulin levels in part by reducing insulin clearance"}]}
{"compound": "CCCCCCCC/C=C\\CCCCCCCC(=O)O", "note": "[oleate]", "values": [{"measurement": "hepatic insulin clearance", "setting": "[2]", "value": "suppressed hepatic insulin clearance"}]}
